Laboratory results as given in publication PMC9847679, “The anti-breast cancer stem cell properties of gold(I)-non-steroidal anti-inflammatory drug complexes” (Chemical Science, 2022).

What was measured:
[1] = Solution stability by UV-vis and NMR spectroscopy; format: physicochemical
Procedure: The stability of 1–8 in solutions relevant for cell-based studies was determined by UV-vis spectroscopy studies. […] The DMSO- and PBS-stable complexes 1–4 (50 μM) were also deemed stable in MEGM : DMSO (1 : 1) over the course of 24 h at 37 °C (Fig. S22 ^†). Time course ^31P{^1H} and ^1H NMR spectroscopy studies were carried out to confirm the solution stability of 1–4. […] The ^1H NMR spectra for 1–3 (10 mM) remained unchanged over the same period (Fig. S26–S28 ^†). […] In the ^31P{^1H} NMR spectrum, the signal for intact 4 (at 27.05 ppm) completely disappeared after 48 h and was replaced by a signal corresponding to triphenylphosphine oxide (at 25.47 ppm) (Fig. S29 ^†). The formation of triphenylphosphine oxide was also detected in the ^1H NMR spectrum (Fig. S30 ^†). Additionally, plating of elemental gold was observed over the course of 72 h.

[2] = Water-octanol partition coefficient (shake-flask, UV-vis); format: physicochemical; conditions: room temperature 24 h
Procedure: Measurement of water-octanol partition coefficient (LogP). The LogP values for 1-8 were determined using the shake-flask method and UV-vis spectroscopy. The 1-octanol used in this experiment was pre-saturated with water. An aqueous solution of 1-8 (500 μL, 100 μM) was incubated with 1-octanol (500 μL) in a 1.5 mL tube. The tube was shaken at room temperature for 24 h. The two phases were separated by centrifugation and the 1-8 content in each phase was determined by UV-vis spectroscopy. […]

HMLER cells = test: Monolayer cytotoxicity (MTT assay), HMLER cells; format: cell-based, human
Text: (§1) Cell Lines and Cell Culture Conditions. The human mammary epithelial HMLER and HMLER-shEcad cell lines were kindly donated by Prof. R. A. Weinberg (Whitehead Institute, MIT). The human epithelial breast MCF10A, breast adenocarcinoma MDA-MB-231 and MDA-MB-468, murine epithelial breast 4T1, and embryonic kidney HEK 293 cell lines were acquired from American Type Culture Collection (ATCC, Manassas, VA, USA).
(§2) HMLER, HMLER-shEcad, and MCF10A cells were maintained in Mammary Epithelial Cell Growth Medium (MEGM) with supplements and growth factors (BPE, hydrocortisone, hEGF, insulin, and gentamicin/amphotericin-B). MDA-MB-231, MDA-MB-468, 4T1, and HEK 293 cells were maintained in Dulbecco's Modified Eagle's Medium (DMEM) supplemented with fetal bovine serum (10 %) and penicillin/streptomycin (1 %). The cells were grown at 310 K in a humidified atmosphere containing 5% CO2.
(§3) Monolayer Cytotoxicity Studies. Exponentially growing cells were seeded at a density of approximately 5 × 10^3 cells per well in 96-well flat-bottomed microplates and allowed to attach for 24 h prior to addition of compounds. Various concentrations of the test compounds (0.0004-100 μM) were added and incubated for 72 h at 37 °C (total volume 200 μl). Stock solutions of the compounds were prepared as 10 mM DMSO solutions and diluted using cell […]
(§4) media. The final concentration of DMSO in each well was ≤1 %. After 72 h, 20 μl of MTT (4 mg mL-1 in PBS) was added to each well and the plates incubated for an additional 4 h at 37 °C. The media/MTT mixture was eliminated and DMSO (100 μl per well) was added to dissolve the formazan precipitates. The optical density was measured at 550 nm using a 96-well multiscanner autoreader. Absorbance values were normalised to (DMSO-containing) control wells and plotted as concentration of test compound versus % cell viability. IC50 values were interpolated from the resulting dose dependent curves. The reported IC50 values are the average of three independent experiments (n = 18). […]
(§5) After incubation for 16 […]
(§6) h, the fluorescence of the solutions was read at 590 nm (λex = 560 nm). Viable mammospheres reduce the amount of the oxidised TOX8 form (blue) and concurrently increase the amount of the fluorescent TOX8 intermediate (red), indicating the degree of mammosphere cytotoxicity caused by the test compound. […]
(§7) Cellular Uptake. To measure the cellular uptake of 1-3 about 1 million HMLER-shEcad cells were treated with 1-3 (0.25 μM) at 37 °C for 24 h. After incubation, the media was removed, the cells were washed with PBS (2 mL × 3) and harvested. The number of cells was counted at this stage, using a haemocytometer. This mitigates any cell death induced by 1-3 at the administered concentration and experimental cell loss. The cellular pellets were dissolved in 65% HNO3 (250 µL) overnight. A cellular pellet of HMLER-shEcad cells treated with 1 was also used to determine the gold content in the nuclear, cytoplasmic and membrane fractions. The Thermo Scientific NE-PER Nuclear and Cytoplasmic Extraction Kit was used to extract and separate the nuclear, cytoplasmic and membrane fractions. The fractions were dissolved in 65% HNO3 (250 µL final volume) overnight. All samples were diluted 17-fold with water and analysed using inductively coupled plasma mass spectrometry (ICP-MS, Thermo Scientific ICAP-Qc quadrupole ICP mass spectrometer). Gold levels are expressed as mass of Au (ng) per million cells. Results are presented as the mean of four determinations for each data point.
(§8) Intracellular ROS Assay. […]

COX-2 [3] = test: COX-2 expression assay (flow cytometry); format: cell-based, human; conditions: LPS 2.5 μM 24 h pre-treatment; 1 at IC50 value or indomethacin 20 μM, 48 h
Procedure: COX-2 Expression Assay. HMLER-shEcad cells were seeded in 6-well plates (at a density […]
indomethacin (20 μM) and incubated for a further 48 h. The cells were then harvested by trypsinisation, fixed with 4% paraformaldehyde (at 37 °C for 10 min), permeabilised with ice-cold methanol (for 30 min), and suspended in PBS (200 μL). […]
labelled anti-COX-2 antibody (5 μL) was then added to the cell suspension and incubated in the dark for 1 h. The cells were then washed with PBS (1 mL) and analysed using a FACSCanto II flow cytometer (BD Biosciences) (10,000 events per sample were acquired) at the University of Leicester FACS Facility. The FL1 channel was used to assess COX-2 expression. Cell populations were analysed using the FlowJo software (Tree Star).
COX-2 Inhibition Enzyme Immunoassay (EIA). […]
(ovine) Inhibitor Screening Assay (Cayman Chemicals).” The assay was performed according to the manuf acturer’s instructions using a 96-well plate set up.

HMLER-shEcad cells = test: Monolayer cytotoxicity (MTT assay), HMLER-shEcad cells; format: cell-based, human
Text: as §1, §2, §3, §4, §5, §6, §7, §8

COX-2 [4] = target: T1, COX-2 (Ovis aries, UniProt P79208); test: COX-2 inhibition enzyme immunoassay (EIA); format: biochemical, ovine; conditions: COX-2-catalysed conversion of arachidonic acid to prostaglandin, tested 1-250 μM
T1 construct: purchased Cayman Chemicals
T1 sequence (P79208 17-603): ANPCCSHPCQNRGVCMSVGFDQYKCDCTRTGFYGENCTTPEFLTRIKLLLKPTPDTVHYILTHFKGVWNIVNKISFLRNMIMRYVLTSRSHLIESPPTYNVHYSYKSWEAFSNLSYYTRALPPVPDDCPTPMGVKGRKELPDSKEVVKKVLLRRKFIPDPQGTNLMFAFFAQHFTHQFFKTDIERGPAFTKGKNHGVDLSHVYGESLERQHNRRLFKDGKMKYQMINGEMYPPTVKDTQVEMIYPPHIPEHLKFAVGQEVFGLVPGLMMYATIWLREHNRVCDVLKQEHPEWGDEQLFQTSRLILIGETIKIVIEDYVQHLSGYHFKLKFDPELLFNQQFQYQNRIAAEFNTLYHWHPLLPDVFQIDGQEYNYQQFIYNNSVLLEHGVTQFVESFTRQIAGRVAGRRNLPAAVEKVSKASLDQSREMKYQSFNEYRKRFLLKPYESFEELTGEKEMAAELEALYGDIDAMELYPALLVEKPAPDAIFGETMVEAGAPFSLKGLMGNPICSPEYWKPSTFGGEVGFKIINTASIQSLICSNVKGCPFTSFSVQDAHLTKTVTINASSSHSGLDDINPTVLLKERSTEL
Procedure: ice-cold methanol (for 30 min), and suspended in PBS (200 μL). […]
COX-2 Inhibition Enzyme Immunoassay (EIA). The COX-2 inhibitory properties of 1,
indomethacin, and ch loro(triphenylphosphine)gold(I) was determined using the “COX
(ovine) Inhibitor Screening Assay (Cayman Chemicals).” The assay was performed
according to the manuf acturer’s instructions using a 96-well plate set up.

[5] = Homo sapiens, within concentration range tested

SMILES: O=C([O][Au][PH](c1ccccc1)(c1ccccc1)c1ccccc1)c1ccccc1O [complex 5]
- stability in PBS : DMSO (1 : 1) (UV-vis) ([1]; 50 μM, 24 h, 37 °C): but not 5, was stable
- LogP value [2]: 0.75 ± 0.01

SMILES: Cc1c(Cl)cccc1Nc1ccccc1C(=O)[O][Au][PH](c1ccccc1)(c1ccccc1)c1ccccc1 [complex 6]
- LogP value [2]: 1.17 ± 0.37

SMILES: CC(C)Cc1ccc(C(C)C(=O)[O][Au][PH](c2ccccc2)(c2ccccc2)c2ccccc2)cc1 (stereo not shown) [complex 8]
- LogP value [2]: 1.19 ± 0.01

SMILES: Cc1cccc(Nc2ccccc2C(=O)[O][Au][PH](c2ccccc2)(c2ccccc2)c2ccccc2)c1C [complex 7]
- LogP value [2]: 0.83 ± 0.23

SMILES: COc1ccc2c(c1)c(CC(=O)O)c(C)n2C(=O)c1ccc(Cl)cc1 [indomethacin]
- IC50 (HMLER cells; [5]): > 100000 nM
- COX-2 expression (COX-2 [3]): decreased
- IC50 (HMLER-shEcad cells; [5]): > 100000 nM

SMILES: O=C(Cc1ccccc1Nc1c(Cl)cccc1Cl)[O][Au][PH](c1ccccc1)(c1ccccc1)c1ccccc1 [complex 4]
- stability in DMSO-d6 (31P{1H} and 1H NMR) ([1]; 10 mM, 72 h): unstable in solution

SMILES: [Cl][Au].c1ccc(P(c2ccccc2)c2ccccc2)cc1 [chloro(triphenylphosphine)gold(I)]
- IC50 (HMLER cells; 72 h incubation, MTT): 207 ± 5 nM
- IC50 (COX-2 [4]): > 250000 nM
- IC50 (HMLER-shEcad cells; 72 h incubation, MTT): 216 ± 3 nM
- fold less toxic towards HMLER and HMLER-shEcad cells than 1 (HMLER-shEcad cells; compared with 1): up to 3.8 fold

SMILES: CC(=O)OC[C@H]1O[C@@H]([S-])[C@H](OC(C)=O)[C@@H](OC(C)=O)[C@@H]1OC(C)=O.CCP(CC)CC.[Au+] [auranofin]
- fold more potent towards HMLER cells than HMLER-shEcad cells (HMLER cells): 2 fold
- IC50 (HMLER cells; 72 h incubation, MTT): 13 ± 2 nM
- IC50 (HMLER-shEcad cells; 72 h incubation, MTT): 26 ± 5 nM
